Laboratory results: patent US20260097047A1, “Small molecule inhibitors of the ribosome biogenesis factor NVL2” (Board of Regents, The University of Texas System, priority 2023, published 2026)

test system: HCT116 cells; test: Cell viability assay (CellTiter-Glo, 72 hours) in HCT116 human colorectal cancer cells; assay type: cell-based; conditions: Homo sapiens, HCT-116; Table 3; HCT116, 72 hours; read-out: Activity
Procedure, shortened: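 Ten-point IC50 came from an asymmetric five-parameter fit of luminescence corrected to vehicle wells. ATP content was measured by CellTiter-Glo 72 h after dosing at 37 °C. Cells were seeded at 2,000/well the day before, with 0.5% DMSO in all wells.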

Q: C#CCOCCN1C(=O)c2ccccc2Sc2cc(NC(=O)Nc3ccccc3)ccc21 [Table 3: —(CH2)2OCH2CCH; Ph; CH/CH, 1-(11-Oxo-10-(2-(prop-2-yn-1-yloxy)ethyl)-10,11-dihydrodibenzo[b,f][1,4]thiazepin-7-yl)-3-phenylurea] was tested. Which IC50 did it give?
A: < 500 nM

same assay, conditions: Homo sapiens, HCT-116; Table 5; HCT116, 72 hours; read-out: Activity

Q: With CC#CCN1C(=O)c2ccccc2Sc2cc(Nc3ccnnc3)ccc21 [10-(But-2-yn-1-yl)-7-(pyridazin-4-ylamino)dibenzo[b,f][1,4]thiazepin-11 (10H)-one] as the molecule, how does the IC50 read?
A: < 500 nM

Q: For CCC/C=C/CN1C(=O)c2ccccc2Sc2cc(Nc3cnccn3)ccc21 [(E)-10-(Hex-2-en-1-yl)-7-(pyrazin-2-ylamino)dibenzo[b,f][1,4]thiazepin-11 (10H)-one], which IC50 is on record?
A: < 500 nM

Q: For CC#CCN1C(=O)c2ccccc2Sc2cc(Nc3nnccc3C#N)ccc21 [3-((10-(But-2-yn-1-yl)-11-oxo-10,11-dihydrodibenzo[b,f][1,4]thiazepin-7-yl)amino)pyridazine-4-carbonitrile], which IC50 is on record?
A: < 500 nM

Q: Which IC50 does the source give for CC#CCN1C(=O)c2ccccc2Sc2cc(Nc3ccccn3)ccc21 [10-(But-2-yn-1-yl)-7-(pyridin-2-ylamino)dibenzo[b,f][1,4]thiazepin-11 (10H)-one] here?
A: < 500 nM

Q: Which IC50 does the source give for CCC/C=C/CN1C(=O)c2ccccc2Sc2cc(Nc3cc(C#N)ccn3)ccc21 [(E)-2-((10-(Hex-2-en-1-yl)-11-oxo-10,11-dihydrodibenzo[b,f][1,4]thiazepin-7-yl)amino) isonicotinonitrile] here?
A: 500 to 1000 nM

Q: With CCC/C=C/CN1C(=O)c2ccccc2Sc2cc(Nc3nccnc3C#N)ccc21 [(E)-3-((10-(Hex-2-en-1-yl)-11-oxo-10,11-dihydrodibenzo[b,f][1,4]thiazepin-7-yl)amino) pyrazine-2-carbonitrile] as the molecule, how does the IC50 read?
A: 500 to 1000 nM

Q: For CC#CCN1C(=O)c2ccc(C#N)cc2Sc2cc(Nc3nc(C)cnc3C)ccc21 [10-(But-2-yn-1-yl)-7-((3,6-dimethylpyrazin-2-yl)amino)-11-oxo-10,11-dihydrodibenzo[b,f][1,4]thiazepine-3-carbonitrile], which IC50 is on record?
A: < 500 nM

Q: Which IC50 does the source give for CC#CCN1C(=O)c2ccccc2Sc2cc(Nc3nccc(C#N)c3C)ccc21 [2-((10-(But-2-yn-1-yl)-11-oxo-10,11-dihydrodibenzo[b,f][1,4]thiazepin-7-yl)amino)-3-methylisonicotinonitrile] here?
A: < 500 nM

Q: With CC#CCN1C(=O)c2ccc(F)cc2Sc2cc(Nc3ncccc3F)ccc21 [10-(But-2-yn-1-yl)-3-fluoro-7-((3-fluoropyridin-2-yl)amino)dibenzo[b,f][1,4]thiazepin-11 (10H)-one] as the molecule, how does the IC50 read?
A: < 500 nM

Q: How did the IC50 turn out when CC#CCN1C(=O)c2ccccc2Sc2cc(Nc3cccnc3C#N)ccc21 [3-((10-(But-2-yn-1-yl)-11-oxo-10,11-dihydrodibenzo[b,f][1,4]thiazepin-7-yl)amino) picolinonitrile] was run?
A: < 500 nM

Q: Which IC50 does the source give for CCC/C=C/CN1C(=O)c2ccccc2Sc2cc(Nc3ccccn3)ccc21 [(E)-10-(Hex-2-en-1-yl)-7-(pyridin-2-ylamino)dibenzo[b,f][1,4]thiazepin-11 (10H)-one] here?
A: 500 to 1000 nM

Q: With CCC/C=C/CN1C(=O)c2ccccc2Sc2cc(Nc3ncccc3F)ccc21 [(E)-7-((3-Fluoropyridin-2-yl)amino)-10-(hex-2-en-1-yl)dibenzo[b,f][1,4]thiazepin-11 (10H)-one] as the molecule, how does the IC50 read?
A: < 500 nM

Q: For CCC/C=C/CN1C(=O)c2ccccc2Sc2cc(Nc3ncccc3OC)ccc21 [(E)-10-(Hex-2-en-1-yl)-7-((3-methoxypyridin-2-yl)amino)dibenzo[b,f][1,4]thiazepin-11 (10H)-one], which IC50 is on record?
A: 500 to 1000 nM

same assay, conditions: Homo sapiens, HCT-116; Table 6; HCT116, 72 hours; read-out: Activity

Q: Which IC50 does the source give for CC#CCN1C(=O)c2ccccc2Sc2cc(NC3CC4CCC3C4)ccc21 (stereo not shown) [7-(Bicyclo[2.2.1]heptan-2-ylamino)-10-(but-2-yn-1-yl)dibenzo[b,f][1,4]thiazepin-11 (10H)-one] here?
A: < 500 nM

Q: With CC#CCN1C(=O)c2ccccc2Sc2cc(NC3COCC3C)ccc21 (stereo not shown) [10-(But-2-yn-1-yl)-7-((4-methyltetrahydrofuran-3-yl)amino)dibenzo[b,f][1,4]thiazepin-11 (10H)-one] as the molecule, how does the IC50 read?
A: < 500 nM

same assay, conditions: Table 3; HCT116, 72 hours; read-out: Activity

Q: CC#CCN1C(=O)c2ccccc2Sc2cc(NC(=O)Nc3ccc(OC)cc3)cnc21 [Table 3: —CH2CCMe; 4-MeOPh; CH/N] was tested. Which IC50 did it give?
A: < 500 nM

Q: How did the IC50 turn out when CC#CCN1C(=O)c2ccccc2Sc2cc(NC(=O)N[C@H]3C[C@H](O)C3)ccc21 [Table 3: —CH2CCMe; trans-3-OH-cBu; CH/CH] was run?
A: < 500 nM

same assay, conditions: Table 4; HCT116, 72 hours; read-out: Activity

Q: How did the IC50 turn out when CC#CCN1C(=O)c2ccccc2Sc2cc(NC(=S)NC3CC(COC)C3)cnc21 (stereo not shown) [Table 4: —CH2CCMe; 3-MeOCH2-cBu; N] was run?
A: < 500 nM

same assay, conditions: Table 5; HCT116, 72 hours; read-out: Activity

Q: Cc1ccnnc1Nc1ccc2c(c1)Sc1ccccc1C(=O)N2CC#CCl was tested. Which IC50 did it give?
A: < 500 nM

Q: Which IC50 does the source give for CC#CCN1C(=O)c2ccccc2Sc2cc(Nc3ncc(C#N)cc3C)cnc21 here?
A: < 500 nM

Q: With Cc1cnc(Nc2cnc3c(c2)Sc2ccccc2C(=O)N3CC#CCl)c(C)n1 as the molecule, how does the IC50 read?
A: < 500 nM

Q: CC#CCN1C(=O)c2ccccc2Sc2cc(Nc3nc(C#N)ccc3C)cnc21 was tested. Which IC50 did it give?
A: < 500 nM

same assay, conditions: Table 6; HCT116, 72 hours; read-out: Activity

Q: CC#CCN1C(=O)c2ccccc2Sc2cc(NC3CC(COC)C3)ccc21 (stereo not shown) was tested. Which IC50 did it give?
A: < 500 nM

Q: CC#CCN1C(=O)c2ccccc2Sc2cc(NC3CC4(CC(=O)C4)C3)ccc21 was tested. Which IC50 did it give?
A: < 500 nM

same assay, conditions: Table 7; cell viability assay, CellTiter-Glo, 72 hours; scaffold drawing 42 with R^2, R^3, X/Y, Z; read-out: Activity

Q: With C#CCOCCN1C(=O)c2ccc(F)cc2Sc2cc(NC(=O)c3ccc4scnc4c3)ccc21 as the molecule, how does the IC50 read?
A: < 500 nM

Q: With CNC(=O)CCCCCN1C(=O)c2ccccc2Sc2cc(NC(=O)c3ccoc3)ccc21 [—(CH2)5CONHMe; furan-3-yl; CH/CH; S] as the molecule, how does the IC50 read?
A: 1000 to 5000 nM

Q: With C#Cc1cc(C(=O)Nc2ccc3c(c2)Sc2ccccc2C(=O)N3CCOC)ccn1 [—(CH2)2OMe; 2-(HCC)pyrid-4-yl; CH/CH; S] as the molecule, how does the IC50 read?
A: 1000 to 5000 nM

Q: With COCCN1C(=O)c2ccccc2Sc2cc(NC(=O)c3cc(F)c(OC)c(F)c3)ccc21 [—(CH2)2OMe; 3,5-F2,4-MeOPh; CH/CH; S] as the molecule, how does the IC50 read?
A: 500 to 1000 nM

Q: For COCCN1C(=O)c2ccccc2Sc2cc(NC(C)=O)ccc21 [—(CH2)2OMe; Me; CH/CH; S], which IC50 is on record?
A: 1000 to 5000 nM

same assay, conditions: Table 8; analogs of scaffold drawing 43 defined by R^2, R^3, X/Y, W; read-out: Activity (IC50 class, cell viability assay)

Q: Which IC50 does the source give for CC#CCN1C(=O)c2ccccc2Sc2cc(NC(=O)C34CC(OC)(C3)C4)cnc21 here?
A: < 500 nM

Q: Which IC50 does the source give for O=C(Nc1cnc2c(c1)Sc1ccccc1C(=O)N2CC#CC1CC1)C1CCOC1 (stereo not shown) here?
A: < 500 nM

Q: Which IC50 does the source give for CC#CCN1C(=O)c2ccccc2Sc2cc(NC(=O)C3CCCCC3)cnc21 [—CH2CCMe; cHex; CH/CH; N] here?
A: < 500 nM

Q: O=C1c2ccccc2Sc2cc(NC(=O)C34CC(F)(C3)C4)cnc2N1CC#CC1CC1 was tested. Which IC50 did it give?
A: < 500 nM

Q: For O=C(Nc1cnc2c(c1)Sc1ccccc1C(=O)N2CC#CCl)C1CC2(CC(=NO)C2)C1 (stereo not shown), which IC50 is on record?
A: < 500 nM

Q: How did the IC50 turn out when CC#CCN1C(=O)c2ccc(Cl)cc2Sc2cc(NC(=O)C3CCCO3)ccc21 (stereo not shown) was run?
A: < 500 nM

Q: For CC#CCN1C(=O)c2ccccc2Sc2cc(NC(=O)c3ccoc3)ccc21 [—CH2CCMe; furan-3-yl; CH/CH; CH], which IC50 is on record?
A: < 500 nM

Q: For CC#CCN1C(=O)c2cc(F)ccc2Sc2cc(NC(=O)C3CC4(CC(O)C4)C3)cnc21 (stereo not shown), which IC50 is on record?
A: < 500 nM

Q: Which IC50 does the source give for O=C(Nc1cnc2c(c1)Sc1ccccc1C(=O)N2CC#CC1CC1)[C@@H]1C[C@H]1CO (relative stereo) [—CH2CC^cPr; trans-2-HOCH2-cPr; CH/CH; N] here?
A: < 500 nM

Q: For CC#CCN1C(=O)c2ccccc2Sc2cc(NC(=O)C3CCCN3C)ccc21 (stereo not shown), which IC50 is on record?
A: < 500 nM

Q: Which IC50 does the source give for C#CCN1C(=O)c2ccc(Cl)cc2Sc2cc(NC(=O)C3CC4(CC(=NOC)C4)C3)ccc21 (stereo not shown) here?
A: < 500 nM

Q: With CON=C1CC2(C1)CC(C(=O)Nc1ccc3c(c1)Sc1ccccc1C(=O)N3CC#CCl)C2 (stereo not shown) as the molecule, how does the IC50 read?
A: < 500 nM

Q: For O=C(Nc1cnc2c(c1)Sc1cc(Cl)ccc1C(=O)N2CC#CCl)C1CC2(CC(=NO)C2)C1 (stereo not shown), which IC50 is on record?
A: < 500 nM

Q: CC#CCN1C(=O)c2ccccc2Sc2cc(NC(=O)C3CC4(CC(=NOC)C4)C3)cnc21 (stereo not shown) was tested. Which IC50 did it give?
A: < 500 nM

Q: Which IC50 does the source give for CC#CCN1C(=O)c2ccccc2Sc2cc(NC(=O)C3CCNC3)ccc21 (stereo not shown) [—CH2CCMe; pyrrolidin-3-yl; CH/CH; CH] here?
A: 1000 to 5000 nM

Q: For C#CCN1C(=O)c2ccc(Cl)cc2Sc2cc(NC(=O)C3CC4(CC(=NOC)C4)C3)cnc21 (stereo not shown), which IC50 is on record?
A: < 500 nM

Q: With CC#CCN1C(=O)c2ccccc2Sc2cc(NC(=O)C3CC3)cnc21 [—CH2CCMe; cPr; CH/CH; N] as the molecule, how does the IC50 read?
A: < 500 nM

Q: Which IC50 does the source give for C#CCN1C(=O)c2ccc(Cl)cc2Sc2cc(NC(=O)[C@H]3C[C@H](OC)C3)ccc21 [—CH2CCH; trans-3-MeOcBu; CCl/CH; CH] here?
A: < 500 nM

same assay, conditions: Table 9; HCT116, 72 hours; read-out: Activity

Q: For COCC1CC(C(=O)Nc2ccc3c(c2)C(C)(O)c2ccccc2C(=O)N3CC#CC2CC2)C1 (stereo not shown) [Table 9: —CH2CCcPr; 3-MeOCH2-cBu; CMeOH], which IC50 is on record?
A: < 500 nM

Q: For CC1c2ccccc2C(=O)N(CC#CC2CC2)c2ccc(NC(=O)C3COC3)cc21 (stereo not shown) [Table 9: —CH2CC^cPr; oxetan-3-yl; CHMe], which IC50 is on record?
A: < 500 nM

Q: How did the IC50 turn out when CC#CCN1C(=O)c2ccccc2C(C)c2cc(NC(=O)C(C)CCOC)ccc21 (stereo not shown) [Table 9: —CH2CCMe; MeO(CH2)2CHMe-; CHMe] was run?
A: < 500 nM

Q: With C#CCN1C(=O)c2ccccc2C(C#N)c2cc(NC(=O)[C@H]3C[C@@H](OC)C3)ccc21 (stereo partly drawn) [Table 9: —CH2CCH; cis-3-MeOcBu; CHCN] as the molecule, how does the IC50 read?
A: < 500 nM

Q: How did the IC50 turn out when CO[C@H]1C[C@@H](C(=O)Nc2ccc3c(c2)C(C)(O)c2ccccc2C(=O)N3CC#CC2CC2)C1 (stereo partly drawn) [Table 9: —CH2CCcPr; cis-3-MeOcBu; CMeOH] was run?
A: < 500 nM

Q: With CC#CCN1C(=O)c2ccccc2Cc2cc(NC(=O)CC3COC3)ccc21 [Table 9: —CH2CCMe; (oxetan-3-yl)CH2; CH2] as the molecule, how does the IC50 read?
A: < 500 nM

Q: Which IC50 does the source give for CO[C@H]1C[C@H](C(=O)Nc2ccc3c(c2)Cc2ccccc2C(=O)N3CC#CC2CC2)C1 [Table 9: —CH2CCCPr; trans-3-MeOcBu; CH2] here?
A: < 500 nM

Q: For CC#CCN1C(=O)c2ccccc2Cc2cc(NC(=O)C34CC(O)(C3)C4)ccc21, which IC50 is on record?
A: < 500 nM

Q: Which IC50 does the source give for CC1c2ccccc2C(=O)N(CC#CC2CC2)c2ccc(NC(=O)CC3COC3)cc21 (stereo not shown) here?
A: < 500 nM

Q: For CC#CCN1C(=O)c2ccccc2C(C)c2cc(NC(=O)CCCO)ccc21 (stereo not shown) [Table 9: —CH2CCMe; (CH2)3OH; CHMe], which IC50 is on record?
A: < 500 nM
